Measured values: US10759803B2, “Asparagine endopeptidase (AEP) inhibitors for managing cancer and compositions related thereto” (priority 2014, dated 2020)
Values belong to the compound of their own block, whether it stands above or below them.

Legend:
AEP = target: T1, AEP (Homo sapiens, UniProt Q99538); experiment: DTT / L-cysteine reversibility of AEP inhibition; type: biochemical; settings: 10 mM DTT or L-cysteine added after 15 min
T1 construct: tested with purified active AEP, IC50 values for the top 8 candidates were found
T1 sequence (Q99538 18-323 limits assumed): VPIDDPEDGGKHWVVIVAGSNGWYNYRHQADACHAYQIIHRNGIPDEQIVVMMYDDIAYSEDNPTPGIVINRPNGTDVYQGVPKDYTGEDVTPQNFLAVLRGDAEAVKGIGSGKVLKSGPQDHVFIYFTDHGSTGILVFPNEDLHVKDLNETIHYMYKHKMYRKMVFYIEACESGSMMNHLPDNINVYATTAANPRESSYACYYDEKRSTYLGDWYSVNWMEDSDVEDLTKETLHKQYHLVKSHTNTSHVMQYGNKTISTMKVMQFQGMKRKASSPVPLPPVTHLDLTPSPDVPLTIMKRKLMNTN
Description: AEP was reacted with specified inhibitor, after 15 min 10 mM DTT or L-cysteine was added to the reaction and the fluorescent signal was read for an additional 15 min. At the end of the second 15 min incubation, the percentage of product formed in the presence of each compound was determined in comparison to the DMSO control reaction.
Although it is not intended that embodiments of this disclosure be limited by any particular mechanism, to gain additional insight into the mechanism utilized by the inhibitors for abrogation of AEP activity, their reversibility in the presence of free thiols was determined. The addition of a strong reducing agent, such as DTT, or a weaker reducing agent, L-cysteine, to an inhibited reaction can be used to out-compete the inhibitory agent and restore catalytic activity to an enzyme with an active-site thiol residue. Here, a similar approach was used by adding a reducing agent, either DTT or L-cysteine, to a reaction, in which AEP had been incubated with a specified inhibitor, in an attempt to reverse the effects of the inhibitor. […] For compounds BB1 and 38, this increase in enzymatic activity may be due to the reduction of a disulfide linkage between the inhibitor and the enzyme, since these compounds contain thiols. Compound 10 contains a thiocyanate and may undergoes nucleophilic attack by the enzyme's active-site thiolate to form a thioimidate enzyme-inhibitor complex. Under acidic conditions, this complex is reducible by either a strong reducing agent, such as DTT, or the weaker L-cysteine.

[1] = target: T2, endogenous AEP in human B lymphoblastoid pala cells (Homo sapiens, UniProt Q99538); experiment: AEP inhibition in intact Pala cells; type: cell-based; settings: 2 hrs incubation, residual enzymatic activity in lysate
T2 construct: human B lymphoblastoid pala cells, which are rich in endogenous AEP; endogenous in cells; host or cells: human B lymphoblastoid Pala cells
T2 sequence (Q99538 18-323): T1 sequence (Q99538 18-323 limits assumed)
Description: The cells were incubated with inhibitors for 2 hrs then cells washed, harvested and lysed and the residual enzymatic activity was determined. Lysate was normalized by Bradford assay and the experiment was performed in triplicate and the mean results and SEM were plotted.
In an attempt to assess the activity of the compounds in intact cells, the compounds were incubated with human B lymphoblastoid pala cells, which are rich in endogenous AEP and have been used for inhibiting AEP in cellular assay.

[2] = system: amyloid precursor protein (APP) cleavage; experiment: APP cleavage in OGD-treated primary cortical neurons; type: cell-based
Description: A. AEP activity, measured in primary neuronal cultures with 5 μM Cbz-Ala-Ala-Asn-AMC (x-axis denotes neurons were treated with 0.1 μM or 1.0 μM specified compound). B. Caspase activity, measured in primary neuronal cultures with 5 μM Ac-Asp-Glu-Val-Asp-AMC. C. Cathepsin activity, measured in primary neuronal cultures with 5 μM D-Val-Leu-Lys-AMC. D. Inhibition of APP cleavage. Lysates of primary cortical neurons pre-incubated with compounds for 30 min, underwent OGD for 4 hrs, were reperfused for 18 hrs (normoxia neurons remained at normoxic conditions). E. APP can be cleaved in a dose-dependent manner. Lysates of primary cortical neurons pre-incubated with compounds for 30 min, underwent OGD for 4 hrs, were reperfused for 18 hrs (normoxia neurons remained at normoxic conditions).
Depriving cells of oxygen and glucose is a cellular model that is employed to trigger acidosis in cultured cells. The efficacy of the compounds in a cellular model of oxygen-glucose deprivation (OGD) was determined in an effort to mimic the effects of stroke in primary cultured neurons. As a result of depriving neurons of oxygen and glucose-containing medium, AEP activity was doubled (FIG. 7A, ‘DMSO-Norm’ compared to ‘DMSO-OGD’), while Caspase-3 and Cathepsin activities remained relatively unchanged. […] Cleavage of APP is observed in response to only DMSO treatment (FIG. 7D, lane 2), and it appears that upon the treatment of 1 μM of compounds 10, 11, and 12, and just 0.1 μM of compound s31, 38 and 64, the cleavage was blocked, presumably due to AEP inhibition.

Caco-2 monolayer = Caco-2 monolayer permeability screen
Description: To explore the in vitro ADME profiles of the compounds, additional tests were conducted.

Cathepsin-L = Cathepsin-L (Homo sapiens, UniProt P07711); experiment: Specificity assay against Cathepsin-L; type: biochemical
Cathepsin-L, sequence (P07711 114-333, species assumed): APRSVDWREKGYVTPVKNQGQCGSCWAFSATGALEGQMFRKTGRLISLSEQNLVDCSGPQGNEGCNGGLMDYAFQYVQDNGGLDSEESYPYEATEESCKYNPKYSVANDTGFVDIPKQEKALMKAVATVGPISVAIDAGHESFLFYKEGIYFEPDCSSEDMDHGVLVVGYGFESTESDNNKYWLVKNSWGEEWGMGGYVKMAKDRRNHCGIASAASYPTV
Description: Purified recombinant enzyme was incubated with various concentrations of inhibitor in appropriate assay buffers in the presence of increasing concentrations of inhibitor. The formation of fluorescent product was monitored in duplicate reactions and the data was fit to appropriate equations to calculate the IC50 values.

[3] = Mouse liver microsomal stability screen; settings: Mouse liver microsomes
CYP2D6 = CYP2D6 (Homo sapiens, UniProt P10635); experiment: CYP inhibition screening, CYP2D6; type: in vitro ADME
CYP2D6, sequence (P10635 whole entry): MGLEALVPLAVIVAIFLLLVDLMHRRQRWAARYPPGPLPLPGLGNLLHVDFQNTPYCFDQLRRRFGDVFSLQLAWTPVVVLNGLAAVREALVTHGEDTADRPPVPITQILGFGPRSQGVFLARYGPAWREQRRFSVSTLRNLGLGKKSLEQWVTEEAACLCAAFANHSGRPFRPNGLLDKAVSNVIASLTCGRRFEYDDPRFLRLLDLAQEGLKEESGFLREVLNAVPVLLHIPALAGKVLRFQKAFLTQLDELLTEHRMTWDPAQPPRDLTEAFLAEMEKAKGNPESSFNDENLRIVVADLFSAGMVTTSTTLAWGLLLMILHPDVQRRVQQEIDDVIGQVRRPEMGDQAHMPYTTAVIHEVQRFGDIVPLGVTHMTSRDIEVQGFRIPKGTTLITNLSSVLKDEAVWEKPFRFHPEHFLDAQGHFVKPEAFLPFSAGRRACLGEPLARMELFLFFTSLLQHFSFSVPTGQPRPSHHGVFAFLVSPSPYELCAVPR

[4] = BBB-PAMPA permeability assay; type: in vitro ADME
CYP3A = experiment: CYP inhibition screening, CYP3A-Testosterone; type: in vitro ADME
[5] = Human liver microsomal stability screen; settings: Human liver microsomes
CYP2C9 = CYP2C9 (Homo sapiens, UniProt P11712); experiment: CYP inhibition screening, CYP2C9; type: in vitro ADME
CYP2C9, sequence (P11712 whole entry): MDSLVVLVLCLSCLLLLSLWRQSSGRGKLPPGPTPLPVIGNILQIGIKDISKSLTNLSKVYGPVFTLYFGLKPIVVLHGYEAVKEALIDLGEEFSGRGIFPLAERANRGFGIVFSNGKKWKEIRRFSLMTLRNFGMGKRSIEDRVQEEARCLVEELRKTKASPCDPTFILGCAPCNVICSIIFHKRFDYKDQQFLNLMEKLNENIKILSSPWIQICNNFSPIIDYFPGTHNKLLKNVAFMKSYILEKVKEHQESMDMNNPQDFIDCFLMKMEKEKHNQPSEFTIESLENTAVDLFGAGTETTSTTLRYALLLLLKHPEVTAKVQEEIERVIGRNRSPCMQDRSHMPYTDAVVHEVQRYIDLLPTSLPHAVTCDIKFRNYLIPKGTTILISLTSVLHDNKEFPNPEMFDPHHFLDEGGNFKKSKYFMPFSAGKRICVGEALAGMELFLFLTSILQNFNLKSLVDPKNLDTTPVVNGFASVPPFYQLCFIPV

CYP2C19 = CYP2C19 (Homo sapiens, UniProt P33261); experiment: CYP inhibition screening, CYP2C19; type: in vitro ADME
CYP2C19, sequence (P33261 whole entry): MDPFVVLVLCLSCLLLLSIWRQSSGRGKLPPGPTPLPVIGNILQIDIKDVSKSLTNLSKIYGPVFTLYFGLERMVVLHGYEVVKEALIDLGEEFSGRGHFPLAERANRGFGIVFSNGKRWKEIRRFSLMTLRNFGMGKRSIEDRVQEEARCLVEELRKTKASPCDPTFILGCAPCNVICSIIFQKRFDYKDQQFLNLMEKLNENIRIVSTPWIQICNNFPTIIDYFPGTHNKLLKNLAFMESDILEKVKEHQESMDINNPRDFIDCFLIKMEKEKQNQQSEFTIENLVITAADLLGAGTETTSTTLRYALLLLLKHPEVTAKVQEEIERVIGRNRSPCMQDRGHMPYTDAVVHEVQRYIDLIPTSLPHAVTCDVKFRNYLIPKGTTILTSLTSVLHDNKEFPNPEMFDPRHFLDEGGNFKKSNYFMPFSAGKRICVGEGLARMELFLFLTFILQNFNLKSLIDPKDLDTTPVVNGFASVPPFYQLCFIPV

CYP3A4 = CYP3A4 (Homo sapiens, UniProt P08684); experiment: CYP inhibition screening, CYP3A4-Midazolam; type: in vitro ADME
CYP3A4, sequence (P08684 whole entry): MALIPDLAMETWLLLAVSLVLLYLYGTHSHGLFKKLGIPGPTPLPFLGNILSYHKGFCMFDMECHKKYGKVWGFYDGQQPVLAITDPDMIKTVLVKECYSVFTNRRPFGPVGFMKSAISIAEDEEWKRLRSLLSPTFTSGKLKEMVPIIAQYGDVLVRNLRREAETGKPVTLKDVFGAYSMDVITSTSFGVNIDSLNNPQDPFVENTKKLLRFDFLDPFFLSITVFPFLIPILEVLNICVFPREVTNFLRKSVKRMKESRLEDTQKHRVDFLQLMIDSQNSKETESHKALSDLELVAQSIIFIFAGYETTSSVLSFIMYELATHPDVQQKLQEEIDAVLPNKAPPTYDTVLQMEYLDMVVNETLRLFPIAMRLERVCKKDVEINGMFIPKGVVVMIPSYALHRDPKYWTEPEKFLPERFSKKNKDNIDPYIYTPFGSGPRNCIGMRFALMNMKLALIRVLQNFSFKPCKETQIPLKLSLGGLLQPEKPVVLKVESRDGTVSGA

CYP1A2 = target: T3, CYP1A2 (Homo sapiens, UniProt P05177); experiment: CYP inhibition screening, CYP1A2; type: in vitro ADME
T3 sequence (P05177 1-516): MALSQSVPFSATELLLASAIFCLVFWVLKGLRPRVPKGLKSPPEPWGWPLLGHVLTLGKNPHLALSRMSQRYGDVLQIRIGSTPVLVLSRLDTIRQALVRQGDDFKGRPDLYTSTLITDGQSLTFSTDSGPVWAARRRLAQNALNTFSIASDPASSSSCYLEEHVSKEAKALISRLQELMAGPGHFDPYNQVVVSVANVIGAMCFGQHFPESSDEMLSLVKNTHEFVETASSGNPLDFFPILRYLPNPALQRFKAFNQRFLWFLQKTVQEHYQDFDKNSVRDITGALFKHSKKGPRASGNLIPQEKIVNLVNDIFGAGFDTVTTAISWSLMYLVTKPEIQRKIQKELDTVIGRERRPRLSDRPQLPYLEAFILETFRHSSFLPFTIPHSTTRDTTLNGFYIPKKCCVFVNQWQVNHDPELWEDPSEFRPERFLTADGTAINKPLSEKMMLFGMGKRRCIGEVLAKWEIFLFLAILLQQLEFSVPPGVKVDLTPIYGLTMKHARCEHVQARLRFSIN

- IC50 in intact Pala cells [1]: slightly larger IC50 values
SMILES: N#CSc1cnc(N)s1 [Compound 10]
- AEP activity after addition of reducing agent (reversibility) (AEP): regained a substantial amount of activity
- APP cleavage after OGD ([2]; 1 μM compound): blocked
- APP cleavage after OGD, dose dependence ([2]; FIG. 7E): dose-dependent decrease

- A −>B Papp (Caco-2 monolayer; table of derivatives): 10.0 10^−6 cm · s^−1
- B −> A Papp (Caco-2 monolayer; table of derivatives): 30.5 10^−6 cm · s^−1
- RE (Caco-2 monolayer; table of derivatives): 3.0
SMILES: Cn1c(S)nc2c1c(=O)n(Cc1ccccc1)c(=O)n2C [Compound 38D-22]

- A −>B Papp (Caco-2 monolayer; table of derivatives): 0.2 10^−6 cm · s^−1
- RE (Caco-2 monolayer; table of derivatives): 8.1
SMILES: CNC(=C[N+](=O)[O-])NCCSCc1ccc(CN(C)C)o1 [Ranitidine, reference compound]

Second part, the compound before the results:

SMILES: Cn1c(=O)c2c(nc(S)n2C)n(C)c1=O [Compound 38D-16]
- A −>B Papp (Caco-2 monolayer; table of derivatives): 0.9 10^−6 cm · s^−1
- B −> A Papp (Caco-2 monolayer; table of derivatives): 3.0 10^−6 cm · s^−1
- RE (Caco-2 monolayer; table of derivatives): 3.3
- selectivity for AEP over Cathepsin-L (Cathepsin-L): 500 fold

SMILES: COc1ccc(N2CCN(C(c3ccc(N(C)C)cc3)c3nnnn3C(C)(C)C)CC2)cc1 (centres unmarked) [Compound 31]
- Mean Remaining Parent (NADPH-free) [3]: 86%
- Mean Remaining Parent (with NADPH) [3]: 16%
- CYP2D6 inhibition (CYP2D6; 3 μM): 9.9%
- CYP2D6 inhibition (CYP2D6; 10 μM): 1.4%
- APP cleavage after OGD ([2]; 0.1 μM compound): blocked
- Caco-2 permeability in words (Caco-2 monolayer): highly permeable
- A −>B Papp (Caco-2 monolayer; Table 1): 19.3 10^−6 cm · s^−1
- B −> A Papp (Caco-2 monolayer; Table 1): 17.4 10^−6 cm · s^−1
- RE (Caco-2 monolayer; Table 1): 0.9
- Pe [4]: <LLOQ
- CYP3A-Testosterone inhibition (CYP3A; 3 μM): 2.5%
- CYP3A-Testosterone inhibition (CYP3A; 10 μM): 0.7%
- Mean Remaining Parent (NADPH-free) [5]: 75%
- Mean Remaining Parent (with NADPH) ([5]; 30 min): 12%
- CYP2C9 inhibition (CYP2C9; 3 μM): 47.8%
- CYP2C9 inhibition (CYP2C9; 10 μM): 69.2%
- CYP2C19 inhibition (CYP2C19; 3 μM): 37.7%
- CYP2C19 inhibition (CYP2C19; 10 μM): 55.7%
- CYP3A4-Midazolam inhibition (CYP3A4; 3 μM): −0.9%
- CYP3A4-Midazolam inhibition (CYP3A4; 10 μM): 18.1%
- CYP1A2 inhibition (CYP1A2; 3 μM): 13.5%
- CYP1A2 inhibition (CYP1A2; 10 μM): 10.3%
